In paper PMC5648763, “Novel cycloneolignans from Vernicia fordii with inhibitory effects on over-activation of BV2 cells in vitro” (Scientific Reports, 2017):

How the values were obtained:
Type in all cases: cell-based, murine
[1] = system: NO production in LPS-induced BV2 cells; assay: Nitrite assay (Griess reaction): NO production in LPS-induced BV2 cells; settings: Mus musculus, BV-2, LPS (100 ng/ml)-activated BV2 cells, 24 h, read-out: Inhibitory effect IC50 on NO production (compounds)
Method: (§1) Figure 5 Effect of compounds 1 and 2 on LPS-induced NO production in microglial cells. (A) BV-2 cells were treated with compounds 1 and 2 in the presence of LPS (100 ng/ml) for 24 h at the indicated concentrations. Cell viability was detected by MTT assay. (B) BV-2 cells were treated with compounds 1 and 2 in the presence of LPS (100 ng/ml) for 24 h. NO production was tested by Griess reaction. Data are expressed as means ± SEM (n = 3). ^#P < 0.05 compared with the control group, *P < 0.05 compared with LPS group.
(§2) The murine microglial cell line BV-2 was from Shanghai Institutes for Biological Sciences, Chinese Academy of Sciences (kindly provided by Prof. Y.Q. Guo, Nankai University, China). BV-2 cells were grown (37 °C and 5% CO2) in DMEM supplemented with 10% FBS, 100 U/ml penicillin and 100 μ g/ml streptomycin. Stock cells were passaged about three times/week and used within 8 passages.
The production of NO in LPS-induced BV2 cells was assayed by Griess reaction[9]–[12]. The cells (2 × 10^4 cells/well) were plated into 96-well plates and incubated with tested samples with 100 ng/mL LPS. Twenty-four hours later, Griess reagent was added into the supernatant at room temperature. And the plates were read on a plate reader at 540 nm after fifteen minutes.

[2] = Cell viability / cytotoxicity by MTT method; settings: mouse
Method: as §1, §2
(§3) Viability of BV2 cells was tested by MTT method described in our previous work[9]–[12]. The cells (2 × 10^4 cells / well) were plated into 96-well plates and were pretreated with tested samples at different concentrations for 24 h. After the supernatant taken away, MTT (0.25 mg/ml) was added into the plate and incubated for 4 h at 37 °C. Finally, the formazan crystals were dissolved in DMSO and the absorbance of each well was recorded at 490 nm using a plate reader (Bio-Tek, Winooski, VT, USA).

BV2 cells = assay: Cell viability / cytotoxicity by MTT method
Method: as §1, §2, §3

[3] = system: IL-6 mRNA expression in BV2 cells; assay: LPS-induced IL-6 mRNA expression in BV-2 cells (Real-time PCR); settings: 10 μM, pretreated 2 h, then LPS (100 ng/mL) 4 h, qRT-PCR
Method: (§4) Figure 7 Effects of compounds 1, 1a, 1b, 2, 2a and 2b on LPS-induced IL-6 and IL-1β mRNA expression in microglial cells. BV-2 microglial cells were pretreated with compounds1, 2, 1a, 1b, 2a and 2b (10 μM) for 2 h and then stimulated with LPS (100 ng/mL). Total RNA was isolated 4 h after LPS treatment, the mRNA levels of IL-6 and IL-1β were measured by qRT-PCR. Data are expressed as means ± SEM (n = 3). ^#P < 0.05 compared with the control group, *P < 0.05 compared with LPS group. Mino stands for minocycline.
as §2
(§5) BV2 cells (4 × 10^5 cells/ml) were plated into 6-well plates and were pretreated with each sample for 2 h and then induced by LPS for 4 h. After that the total RNA was isolated using Trizol and converted to cDNA. CFX ConnectTM real-time PCR detection system (Bio-Rad, Hercules, CA, USA) was used for the experiment. The level of GAPDH gene was used for standardization.

[4] = system: IL-1β mRNA expression in BV2 cells; assay: LPS-induced IL-1β mRNA expression in BV-2 cells (Real-time PCR); settings: 10 μM, pretreated 2 h, then LPS (100 ng/mL) 4 h, qRT-PCR
Method: as §4, §2, §5

IC50 [1] [µM] | Compound | IC50 at 24 h [2] [µM] | Cytotoxicity at the effective concentrations (BV2 cells) | Effect on LPS-induced IL-6 mRNA expression [3] | Effect on LPS-induced IL-1β mRNA expression [4]
1.46 ± 0.91 | Oc1ccc(C2C3COC2(O)CC(O)c2cc(O)c(O)cc23)cc1O (stereo not shown) [Compound 1, Verniciasin A] | > 100 | without obvious cytotoxicities | suppressed | suppressed
– | Oc1ccc(C2C3COC2(O)CC(O)c2cc(O)c(O)cc23)cc1O (stereo not shown) [Compound 1a, 7R, 8R, 7′R, 9′S-verniciasin A] | – | – | significant inhibitory action | significant inhibitory action
– | Oc1ccc(C2C3COC2(O)CC(O)c2cc(O)c(O)cc23)cc1O (stereo not shown) [Compound 1b, 7S, 8S, 7′S, 9′R- verniciasin A] | – | – | did not display inhibitory activity | did not display inhibitory activity
17.4 ± 0.87 | COC1CC2(O)OCC(c3cc(O)c(O)cc31)C2c1ccc(O)c(O)c1 (racemic) [Compound 2, (±) methoxylverniciasin A] | > 100 | without obvious cytotoxicities | did not show inhibitory effect | did not show inhibitory effect
– | COC1CC2(O)OCC(c3cc(O)c(O)cc31)C2c1ccc(O)c(O)c1 (stereo not shown) [Compound 2a, 7R, 8R, 7′R, 9′S−7′-methoxylverniciasin A] | – | – | moderate inhibitory effect | moderate inhibitory effect
